Entries after “also recorded” stand apart in the source; their conditions may differ. Read-outs that look alike come from different tables or passages of the source.
Experiments:
[1] = test system: endothelial cells; test: Proliferation of endothelial cells (general statement); assay type: cell-based
[2] = test system: vascular smooth muscle cells; test: Proliferation/growth of vascular smooth muscle cells (general statement); assay type: cell-based
[3] = test system: rat vascular smooth muscle cells; test: cells; assay type: cell-based
Protocol: DNA synthesis assessed by the uptake of [3H]thymidine: Cells are grown in either 48 or 96 wells plates (Costar, Cambridge, Mass.) at 104 and 0.8 10^3 cells per well, respectively, and grown in Dubelcco's modified Eagle's medium (DME, Gibco, Grand Island, N.Y.) supplemented with 10% heat-inactivated calf serum; they are kept at 37° C. in 5% CO2. When they reach confluence, usually between 3 and 4 days, the medium is replaced with DME 0.5% serum to make them quiescent, and mitogenesis assays are performed 24 hours later.
Quiescent cells are exposed to a mitogenic stimulus, such as 10% serum, PDGF (Sigma Co. St. Louis, Mo.), bFGF (Upstate Biotechnologies, Lake Placid, N.Y.), or other appropriate mitogen according to the cell line, and 3 hours later 1 μCi/ml of [3H]thymidine (Dupont, Billerica, Mass. ) is added to the wells, and the cells maintained at 37° C./5% CO2 for additional 21 hours. Then the cells are washed 3 times with DME medium and the acid-precipitable radioactivity is extracted with cold 10% TCA (Sigma, Co). After neutralization with 0.3 N NaOH (Sigma Co.), aliquots are counted in a Packard Tri-Carb Scintillation counter (Packard Instrument, Downer's Grove, Ill.).
Rat vascular smooth muscle cells (murine cell line): Quiescent cells were stimulated with purified growth factors (PDGF and bFGF, […]) and synthesis of DNA was assessed by the incorporation of [3H]thymidine measured 24 hours later.
Cells were stimulated using […] bFGF. […] (FIG. 2)
Other antimycotics were tested for their inhibition of bFGF-stimulated DNA synthesis in rat vascular smooth muscle cells.

[4] = test system: bovine endothelial (BAEC); test: Cell growth (surface of culture flask covered by cell monolayer), bovine endothelial cells; assay type: cell-based; settings: 10 μM, 48 hs, without CLT 90±2%
Protocol: (§1) Measurement of cell density in culture plates: Cells of a specific test cell line are seeded at precisely the same low density in culture plates and incubated for approximately 12 hours in DME 10% serum, or other culture medium depending on the cell line tested. […] Alternatively, the cells can be detached from the plate by incubation with trypsin (Sigma, Co.) […] in ethylene diaminotetraacetic acid (ECTA; Sigma, Co); then the cells are counted in an hemocytometer chamber (Fisher, Pittsburgh, Pa.).
(§2) Bovine endothelial (BAEC) and human umbilical vein (HUVEC): Cells were seeded at a low density (2.5×10^5) in cell culture flasks (75 ml flasks) containing DME 10% calf serum (BAEC) or fetal calf serum (HUVEC); after 12 hs, when the cells were attached to the surface of the flasks, CLT (10 μM) or carrier (ethanol) were added to triplicate flasks. After 48 hs cell growth was assessed by optic miscroscopy calculating the surface of the culture flask covered by the cell monolayer.

[5] = test system: human umbilical vein (HUVEC); test: Cell growth (surface of culture flask covered by cell monolayer), human umbilical vein cells; assay type: cell-based; settings: 10 μM, 48 hs, without CLT 90±2%
Protocol: as §1, §2

[6] = target: T1, Ca^++ activated K channel of human erythrocytes (Homo sapiens, UniProt O15554); test: Inhibition of Ca++ activated K channel of human erythrocytes, 86Rb influx; assay type: biochemical; settings: for Order of inhibitory potency, Ca++ activated 86Rb influx / Inhibition of Ca++ activated 86Rb influx by other antimycotics: human erythrocytes; for Inhibition of Ca++ activated 86Rb influx by other antimycotics: FIG. 4
T1 construct: Preparation of Human Red Blood Cells: Blood is collected in heparinized tubes; endogenous in cells; host or cells: washed human erythrocytes (red blood cells from heparinized blood)
Protocol: (§3) Preparation of Human Red Blood Cells: Blood is collected in heparinized tubes and centrifuged in a Sorvall centrifuge (RB 5B, Du Pont Instruments,Newtown, Conn.) at 5° C. for 10 minutes at 3000 g. Plasma and buffy coat are carefully removed and the cells washed four times with a washing solution containing 150 mM choline chloride (Sigma Co), 1 mM MgCl2 (Sigma Co),10mM Tris-MOPS (Sigma, Calif.), pH 7.4 at 4° C.(CWS). An aliquot of cells is then suspended in an approximately equal volume of CWS, and from this original cell suspension hematocrit (Hct) and hemoglobin (optical density at 540 nm) are determined.
Methods to Test Inhibitors of the Ca^++ Activated K channel: To test inhibitors of the Ca^++ activated K channel, the channel is activated using the calcium ionophore A23187 (Calbiochem).
By radioisotopic measurement of ^86 Rb influx. The incubation medium is the same but contains 2 mM KCl and 1 μCi/ml of the radioactive tracer ^86 Rb. After spinning the samples through the phthalate layer, the tubes are rapidly frozen (-80° C.) by immersion in methanol-dry ice, the tips of the tubes containing the packed red cells cut, and counted in a Packard Gamma Counter.
(§4) The inhibitory effect of (CLT) on the Ca^++ activated K channel of human erythrocytes was assessed in the presence of 60 μmol A23187/L cell and 100 μMCaCl2.
Other antimycotics were tested for their inhibition of the Ca++ activated 86Rb influx human erythrocytes.

[7] = target: T1, Ca^++ activated K channel of human erythrocytes; test: Inhibition of Ca++ activated K channel of human erythrocytes, K efflux; assay type: biochemical; settings: 60 μmol A23187/L cell, 100 μM CaCl2
Text: Ca^++ -sensitive K+ channels have wide distribution among cells, including the human red cell where they were originally discovered and which is the most commonly utilized assay system for activators and inhibitors of the channel for the following reasons: they are readily available, can be easily manipulated in the laboratory, and transport assays can be accurately standardized by reading the hemoglobin concentration of a red cell suspension.
as §3, with “determined. […]” for “determined.”
as §4

[8] = test system: Swiss 3T3 cells; test: Proliferative response to mitogens released from MAC-treated endothelial cells, 3T3 cells; assay type: cell-based; settings: 10 μM CLT; quiescent 3T3 cells; conditioned media from MAC treated EC; FIG. 5
Protocol: (§5) CLT inhibits the mitogenic activity released from endothelial cells by activated component. When endothelial cells (EC) in culture (both BAEC and HUVEC) are treated with terminal complement components to form the MAC (membrane attack complex of complement), they release into the culture medium a potent mitogenic activity that stimulates the proliferation of quiescent cells used as indicators of the mitogens. Both, quiescent Swiss 3T3 and vascular smooth muscle cells are stimulated by the mitogens released form EC in response to the MAC (FIG. 5; Halperin et al. unpublished observation). Moreover, immunoprecipitation with specific antibodies has documented that both PDGF and bFGF released from the EC contribute in approximately equal proportion to the mitogenic activity induced by the MAC (data not shown).
(§6) To determine whether CLT inhibited the cell proliferative activity released by the MAC from EC, quiescent 3T3 and vascular smooth muscle cells were stimulated in the presence and absence of 10 μM CLT with conditioned media obtained from MAC treated EC.

[9] = test system: vascular smooth muscle cells; test: Proliferative response to mitogens released from MAC-treated endothelial cells, vascular smooth muscle cells; assay type: cell-based; settings: 10 μM CLT; quiescent vascular smooth muscle cells; conditioned media from MAC treated EC; FIG. 5
Protocol: as §5, §6

[10] = test system: epidermal cells; test: Growth of epidermal cells (general statement); assay type: cell-based
[11] = hormonal adjuvant for prostate cancer; cited from earlier work
[12] = test system: 17-20 desmolase; settings: cited from earlier work
[13] = test system: 17-hydroxylase; settings: cited from earlier work
[14] = test system: 21- and/or 11-hydroxylase; settings: cited from earlier work

Compound: N=C(N)NC(=O)c1nc(Cl)c(N)nc1N [amiloride]
- Inhibition of proliferation of endothelial cells [1]: do not inhibit cell proliferation
- Inhibition of proliferation/growth of vascular smooth muscle cells [2]: do not inhibit cell proliferation

Compound: Clc1ccccc1C(c1ccccc1)(c1ccccc1)n1ccnc1 [clotrimazole]
- Dose response of inhibition of DNA synthesis [3]: dose dependent
- Inhibition of DNA synthesis [3]: complete inhibition
- Inhibition of PDGF stimulated DNA synthesis [3]: completely inhibited
- Inhibition of bFGF stimulated DNA synthesis [3]: completely inhibited
- Inhibition of bFGF-stimulated DNA synthesis [3]: inhibited DNA synthesis
- Order of inhibitory potency, bFGF-stimulated DNA synthesis [3]: CLT more potent than ECZ
- Reversibility of the inhibition of DNA synthesis [3]: reversed by removing CLT
- inhibition at 1 µM ([3]; Rattus norvegicus, read-out: Inhibition of DNA synthesis): 45%
- Flask surface covered by cells in the presence of CLT [4]: less than 10%
- Flask surface covered by cells in the presence of CLT [5]: less than 10%
- Inhibition of Ca^++ activated 86Rb influx ([6]; 60 μmol A23187/L cell, 100 μM CaCl2): markedly inhibited
- Order of inhibitory potency, Ca++ activated 86Rb influx [6]: clotrimazole more than miconazole
- Inhibition of Ca^++ activated K efflux [7]: markedly inhibited
- Inhibition of proliferative response to mitogens released from EC [8]: completely inhibited
- Inhibition of proliferative response to mitogens released from EC [9]: completely inhibited

Compound: Clc1ccc(COC(Cn2ccnc2)c2ccc(Cl)cc2Cl)cc1 (stereo not drawn) [econazole]
- Order of inhibitory potency, bFGF-stimulated DNA synthesis ([3]; 10 μM, FIG. 3): ECZ more potent than MCZ
- Inhibition of bFGF-stimulated DNA synthesis ([3]; antimycotics at 10 μM, FIG. 3): inhibited DNA synthesis
- Order of inhibitory potency, Ca++ activated 86Rb influx [6]: both of these were more than econazole

Compound: OC(Cn1cncn1)(Cn1cncn1)c1ccc(F)cc1F [fluconazole]
- Inhibition of Ca++ activated 86Rb influx by other antimycotics [6]: no inhibition

Compound: CC(=O)N1CCN(c2ccc(OCC3COC(Cn4ccnc4)(c4ccc(Cl)cc4Cl)O3)cc2)CC1 (stereo not drawn) [ketoconazole]
- Inhibition of proliferation of endothelial cells [1]: not useful for inhibiting
- Inhibition of proliferation/growth of vascular smooth muscle cells [2]: not useful for inhibiting; also recorded: ineffective
- Inhibition of growth of epidermal cells [10]: ineffective
- Plasma testosterone reduction [11]: reduces plasma testosterone to castration levels
- Inhibition of 17-20 desmolase [12]: inhibition
- Blockade of 17-hydroxylase [13]: partial blockade
- Inhibition of 21- and/or 11-hydroxylase [14]: marked inhibition

Compound: Cc1ncc([N+](=O)[O-])n1CCO [metronidazole]
- Inhibition of Ca++ activated 86Rb influx by other antimycotics [6]: only marginal

Compound: Clc1ccc(COC(Cn2ccnc2)c2ccc(Cl)cc2Cl)c(Cl)c1 (stereo not drawn) [miconazole]
- Order of inhibitory potency, bFGF-stimulated DNA synthesis ([3]; 10 μM, FIG. 3): ECZ more potent than MCZ
- Inhibition of bFGF-stimulated DNA synthesis ([3]; antimycotics at 10 μM, FIG. 3): inhibited DNA synthesis
- Order of inhibitory potency, Ca++ activated 86Rb influx [6]: both of these were more than econazole

Compound: Cc1ncc([N+](=O)[O-])n1CC(O)CCl (stereo not drawn) [ornidazole]
- Inhibition of Ca++ activated 86Rb influx by other antimycotics [6]: no inhibition

Compound: C[C@@H]1O[C@@H](O[C@H]2C[C@@H](O)[C@]3(CO)[C@H]4[C@H](O)C[C@]5(C)[C@@H](C6=CC(=O)OC6)CC[C@]5(O)[C@@H]4CC[C@]3(O)C2)[C@H](O)[C@H](O)[C@H]1O [ouabain]
- Inhibition of proliferation of endothelial cells [1]: do not inhibit cell proliferation
- Inhibition of proliferation/growth of vascular smooth muscle cells [2]: do not inhibit cell proliferation

Compound: CCS(=O)(=O)CCn1c([N+](=O)[O-])cnc1C [tinidazole]
- Inhibition of Ca++ activated 86Rb influx by other antimycotics [6]: no inhibition

Compound: charybdotoxin
- Inhibition of DNA synthesis by other inhibitors of the Ca^++ activated K channel ([3]; FIG. 3): failed to inhibit DNA synthesis
- Inhibition of proliferation of endothelial cells [1]: do not inhibit proliferation
- Inhibition of proliferation/growth of vascular smooth muscle cells [2]: do not inhibit proliferation

Compound: iberiotoxin (QFTDVDCSVSKECWSVCKDLFGVDRGKCMGKKCRCYQ; UniProt P24663 1-37, looked up)
- Inhibition of DNA synthesis by other inhibitors of the Ca^++ activated K channel ([3]; FIG. 3): failed to inhibit DNA synthesis
- Inhibition of proliferation of endothelial cells [1]: do not inhibit proliferation
- Inhibition of proliferation/growth of vascular smooth muscle cells [2]: do not inhibit proliferation

Compound: kaliotoxin: specific inhibitor of the Ca^++ activated potassium channel
- Inhibition of DNA synthesis by other inhibitors of the Ca^++ activated K channel ([3]; FIG. 3): failed to inhibit DNA synthesis
- Inhibition of proliferation of endothelial cells [1]: do not inhibit proliferation
- Inhibition of proliferation/growth of vascular smooth muscle cells [2]: do not inhibit proliferation
